Assay results as given in ChEMBL document CHEMBL1123587, “Nucleosides. 139. Synthesis and anticytomegalovirus and antiherpes simplex virus activity of 5'-modified analogues of 2'-fluoroarabinosylpyrimidine nucleosides” (1987).

Legend:
Assay type in all cases: functional
Vero = test: Compound was evaluated for cytotoxicity in rapidly dividing Vero cells; details: Chlorocebus sabaeus, read-out: ID50 (the source's name)
Human alphaherpesvirus 2 [1] = test: Effective concentration required to inhibit replication of strain G of HSV-2 by 50%; details: read-out: ED50 (the source's name)
Human alphaherpesvirus 1 [2] = test: Effective concentration required to inhibit replication of strain F of HSV-1 by 50%; details: read-out: ED50 (the source's name)
Human alphaherpesvirus 2 [3] = test: Effective concentration required to inhibit replication of strain G of HSV-2 by 90%
Human alphaherpesvirus 1 [4] = test: Effective concentration required to inhibit replication of strain F of HSV-1 by 90%

Compound	IC50 (Vero) [µM]	EC50 (Human alphaherpesvirus 2 [1]) [µM]	EC50 (Human alphaherpesvirus 1 [2]) [µM]	ED90 (Human alphaherpesvirus 2 [3]) [µM]	ED90 (Human alphaherpesvirus 1 [4]) [µM]
NCC1O[C@@H](n2cc(I)c(N)nc2=O)[C@H](F)[C@H]1O (stereo not given in full)	> 400	> 400	202	>400	480
CC1O[C@@H](n2cc(I)c(N)nc2=O)[C@H](F)[C@H]1O (stereo not given in full)	> 400	> 400	> 400	>400	>400
Cc1cn([C@@H]2OC(CN)[C@H](O)[C@H]2F)c(=O)[nH]c1=O (stereo not given in full)	6.7	5.6	0.78	14	3
O=c1[nH]c(=O)n([C@@H]2O[C@H](CO)C(O)C2F)cc1I (single isomer, unassigned) [FIALURIDINE]	10.3	0.01	0.012	0.045	0.041
Cc1cn([C@@H]2O[C@H](CO)C(O)C2F)c(=O)[nH]c1=O (single isomer, unassigned) [5-METHYL-2'-FLUOROARAURACIL]	2.8	0.023	0.018	0.09	0.047
Nc1nc(=O)n([C@@H]2OC(CS)[C@H](O)[C@H]2F)cc1I (stereo not given in full)	337	> 200	216	>200	444
CC1O[C@@H](n2cc(I)c(=O)[nH]c2=O)[C@H](F)[C@H]1O (stereo not given in full)	> 400	135	220	290	384
Cc1cn([C@@H]2OC(CS)[C@H](O)[C@H]2F)c(=O)[nH]c1=O (stereo not given in full)	314	> 200	> 200	>200	>200
Cc1cn([C@@H]2OC(C)[C@H](O)[C@H]2F)c(=O)[nH]c1=O (stereo not given in full)	214	173	31.1	493	298
CC1O[C@@H](n2ccc(N)nc2=O)[C@H](F)[C@H]1O (stereo not given in full)	225	17.1	13.3	45.5	35.9
Nc1nc(=O)n([C@@H]2O[C@H](CO)C(O)C2F)cc1I (single isomer, unassigned) [FIACITABINE]	21.7	0.03	0.023	0.08	0.048
NCC1O[C@@H](n2cc(I)c(=O)[nH]c2=O)[C@H](F)[C@H]1O (stereo not given in full)	> 200	> 200	108	>200	>200
CC1O[C@@H](n2ccc(=O)[nH]c2=O)[C@H](F)[C@H]1O (stereo not given in full)	333	224	346	379	538
